This is an account of results in patent publication US20120252865A1, “CARBAMATE DERIVATIVES IN PARTICULAR FOR THE TREATMENT OF NEUROLOGICAL DISORDERS” (SIGMA-TAU INDUSTRIE FARMACEUTICHE RIUNITE S.P.A., priority 2009, published 2012).

The IC50 is the point on the concentration scale where inhibition reaches its midpoint. Low readings indicate greater potency, high ones weaker potency. Usually Ki stands for a measure of affinity in units of concentration, obtained from inhibition or displacement.

In assay [1] the test system is pain. Conditions: Kathuria S., et al, Nat. Med., 2003; cited from earlier work.
Assay [2] concerns mechanical hyperalgesia. The assay is described as follows: Paw withdrawal test for mechanical hyperalgesia (Randall-Selitto analgesimeter). Conditions: rat. The format is in vivo. As to the method: The paw withdrawal test was used to assess mechanical hyperalgesia. The nociceptive threshold, expressed in grams, was measured by applying increasing pressure to the left and right hind paws using a Randall-Selitto analgesimeter (Ugo Basile, Varese, Italy). The parameter used to quantify the nociceptive threshold was defined as the pressure (grams) at which the rat withdrew its paw. Rats were habituated to the testing procedures and handling by the investigator in the week prior to the experiment.
Dose response experiments at 10, 30 and 100 mg/kg were also conducted with ST4068, ST3911 and ST3913.

The test system of assay [3] is pain. Conditions: Kathuria S., et al, Nat. Med., 2003; cited from earlier work. The source holds these as a separate data set.
For assay [4], the system named is anxiety. Conditions: Kathuria S., et al, Nat. Med., 2003; cited from earlier work.
In assay [5] the target is CB2R (Homo sapiens, UniProt P34972). The assay is described as follows: Selectivity profile: CB2R. The format is binding. Conditions: tested at a multiple of the FAAH IC50. As to the method:
(§1) The compounds of the present invention were also evaluated with regard to their selectivity profile against the following targets: AMT, NAPE-PLD, MAGL, DAGL, CB1/CB2 and TRPV1 according to the procedures described in Maccarrone M., et al., J. Biol. Chem., 2000, 275, 13484, Fezza F., et al., Anal Biochem., 2005, 339, 113, Dinh T. P., et al., 2002, Proc. Natl. Acad. Sci. 99, 10819, Bisogno T., et al., 2003, J. Cell Biol., 163, 463, Maccarrone M., et al., J. Biol. Chem., 2000, 275, 31938, Ross R. A., et al., Br. J. Pharmacol., 2001, 132, 631.

Assay [6] relates to DAGL. The assay is described as follows: Selectivity profile: DAGL. Conditions: tested at a multiple of the FAAH IC50. The format is biochemical. The procedure:
as §1

For assay [7], the target named is T1, MAGL (Homo sapiens, UniProt Q99685).
T1 sequence (Q99685 1-303): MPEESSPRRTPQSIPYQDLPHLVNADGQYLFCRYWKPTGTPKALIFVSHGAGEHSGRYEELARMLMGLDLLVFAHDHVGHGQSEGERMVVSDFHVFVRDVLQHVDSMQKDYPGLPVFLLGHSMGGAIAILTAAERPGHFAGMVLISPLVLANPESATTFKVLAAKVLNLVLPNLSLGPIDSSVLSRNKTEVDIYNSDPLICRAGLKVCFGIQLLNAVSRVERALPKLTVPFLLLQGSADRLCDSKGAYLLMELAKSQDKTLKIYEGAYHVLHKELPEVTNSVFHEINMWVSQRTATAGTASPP
The assay is described as follows: Selectivity profile: MAGL. The format is biochemical. Conditions: tested at a multiple of the FAAH IC50. The procedure:
as §1

The target of assay [8] is T2, fatty acid amide hydrolase (FAAH, EC 3.5.1.4) (Mus musculus, UniProt O08914).
T2 construct: The reaction was initiated by the addition of mouse brain homogenate (40 μg); from tissue; host or cells: mouse brain homogenate
T2 sequence (O08914 1-579): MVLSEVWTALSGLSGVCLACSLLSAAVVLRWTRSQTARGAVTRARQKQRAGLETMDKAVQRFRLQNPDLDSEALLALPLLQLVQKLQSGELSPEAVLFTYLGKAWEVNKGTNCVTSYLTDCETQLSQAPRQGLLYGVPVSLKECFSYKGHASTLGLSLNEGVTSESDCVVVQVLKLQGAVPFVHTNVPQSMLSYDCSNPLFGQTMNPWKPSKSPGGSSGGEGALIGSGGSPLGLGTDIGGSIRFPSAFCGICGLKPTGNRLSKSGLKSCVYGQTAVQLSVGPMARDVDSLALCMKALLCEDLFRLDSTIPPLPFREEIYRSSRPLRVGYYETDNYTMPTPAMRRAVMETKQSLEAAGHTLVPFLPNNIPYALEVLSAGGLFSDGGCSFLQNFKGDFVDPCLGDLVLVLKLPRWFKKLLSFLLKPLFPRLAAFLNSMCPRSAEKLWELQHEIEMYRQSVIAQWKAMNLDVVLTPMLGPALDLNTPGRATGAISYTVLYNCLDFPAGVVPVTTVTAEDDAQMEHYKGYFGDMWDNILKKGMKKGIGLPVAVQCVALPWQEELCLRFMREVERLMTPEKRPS
Put plainly: FAAH assay: release of [1-14C]AA from [1-14C]AnNH by RP-HPLC. The format is biochemical. Conditions: mouse brain homogenate. The procedure: The compounds of the present invention show affinity and inhibit the enzymatic activity of the fatty acid amide hydrolase enzyme.
The assay of FAAH (EC 3.5.1.4) was performed by measuring the release of [1-^14C]AA from [1-^14C]AnNH (52 mCi/mmol), using RP-HPLC. Also [^3H]AnNH (205 Ci/mmol) could be used as substrate, measuring the release of [^3H]AA under the same experimental conditions described below for [1-^14C]AnNH. Compounds of the invention, at various concentrations, were added in 200 μl hydrolase assay buffer (50 mM Tris-HCl, pH 9.0), in 2-ml Eppendorf tubes, 20 min before adding [1-^14C]AnNH2, up to a concentration of 10 μM. The reaction was initiated by the addition of mouse brain homogenate (40 μg), and after incubation at 37° C. for 15 min it was stopped by the addition of 800 μl ice-cold methanol/chloroform (2:1, v/v) with vortexing. This mixture was allowed to stand at room temperature for 30 min, then 240 μl chloroform and 240 μl water were added with vortexing. After 10 min at room temperature, the mixture was centrifuged at 3000 g for 5 min, the upper aqueous layer was removed by suction and the lower organic phase was dried by spinning the samples in a DNA MINI speedvac (Heto-Holten, Denmark), at 100 mbar and 30° C. for 30 min. The residue was dissolved into 50 μl methanol and subjected to RP-HPLC analysis for AA quantitation, as detailed below. FAAH specific activity was expressed as pmol AA released/min/mg protein. Kinetic studies were performed by Lineweaver-Burk analysis, using [1-^14C]AnNH, [1-^14C]ODNHEtOH, or [1-^14C]ODNH2 in the concentration range 0-12 μM. Fitting of the experimental points by a linear regression programme (Kaleidagraph 3.0) yielded straight lines with r values >0.97.

Assay [9] deals with TRPV1. The assay is described as follows: Selectivity profile: TRPV1. The format is binding. Conditions: tested at a multiple of the FAAH IC50. As to the method: as §1
Assay [10] addresses NAPE-PLD (Homo sapiens, UniProt Q6IQ20). Put plainly: Selectivity profile: NAPE-PLD. The format is biochemical. Conditions: tested at a multiple of the FAAH IC50. The procedure: as §1
Assay [11] addresses CB1R (Homo sapiens, UniProt P21554). The assay is described as follows: Selectivity profile: CB1R. Conditions: tested at a multiple of the FAAH IC50. The format is binding. The procedure:
as §1

In assay [12] the test system is AMT. Put plainly: Selectivity profile: AMT. The format is cell-based. As to the method: as §1

NAPE-PLD, sequence (Q6IQ20 whole entry, species assumed): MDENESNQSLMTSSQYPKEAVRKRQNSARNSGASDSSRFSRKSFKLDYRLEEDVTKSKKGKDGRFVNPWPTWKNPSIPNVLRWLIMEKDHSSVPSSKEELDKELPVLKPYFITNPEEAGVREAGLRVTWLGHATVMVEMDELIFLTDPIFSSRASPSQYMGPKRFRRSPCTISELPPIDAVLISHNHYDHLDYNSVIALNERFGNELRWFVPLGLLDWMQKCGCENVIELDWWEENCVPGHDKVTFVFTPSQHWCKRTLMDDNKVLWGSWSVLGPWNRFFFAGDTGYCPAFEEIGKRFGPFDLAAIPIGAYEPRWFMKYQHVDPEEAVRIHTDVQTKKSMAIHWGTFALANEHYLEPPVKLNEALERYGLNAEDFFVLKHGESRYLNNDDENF
CB1R, sequence (P21554 whole entry): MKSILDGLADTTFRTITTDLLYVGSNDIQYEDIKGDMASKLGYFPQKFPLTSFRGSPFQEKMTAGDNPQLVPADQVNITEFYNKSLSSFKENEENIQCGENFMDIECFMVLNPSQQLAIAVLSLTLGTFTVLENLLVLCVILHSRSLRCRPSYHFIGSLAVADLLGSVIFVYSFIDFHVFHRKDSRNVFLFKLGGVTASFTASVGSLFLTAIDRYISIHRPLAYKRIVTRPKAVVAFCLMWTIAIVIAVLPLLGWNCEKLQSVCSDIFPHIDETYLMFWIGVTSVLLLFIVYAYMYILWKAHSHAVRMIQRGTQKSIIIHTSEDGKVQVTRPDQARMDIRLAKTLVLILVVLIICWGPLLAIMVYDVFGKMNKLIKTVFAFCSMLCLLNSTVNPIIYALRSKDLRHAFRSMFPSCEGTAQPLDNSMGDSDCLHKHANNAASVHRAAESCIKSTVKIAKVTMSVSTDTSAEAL
CB2R, sequence (P34972 whole entry): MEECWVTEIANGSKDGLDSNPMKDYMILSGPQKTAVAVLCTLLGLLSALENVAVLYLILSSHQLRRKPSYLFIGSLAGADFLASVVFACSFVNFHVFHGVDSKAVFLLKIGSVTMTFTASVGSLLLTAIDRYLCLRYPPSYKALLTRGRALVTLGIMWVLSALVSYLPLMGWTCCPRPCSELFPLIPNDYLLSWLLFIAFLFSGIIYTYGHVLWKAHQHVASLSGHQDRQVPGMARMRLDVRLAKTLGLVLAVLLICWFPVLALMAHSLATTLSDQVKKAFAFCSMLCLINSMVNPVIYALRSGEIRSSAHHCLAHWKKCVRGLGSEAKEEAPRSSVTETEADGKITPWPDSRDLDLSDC

`NC(=O)c1cccc(-c2cccc(OC(=O)NC3CCCCC3)c2)c1` [URB597]: the “analgesic efficacy in the rat formalin test” value in assay [1] is recorded as “analgesic efficacy”. For the same compound, the “analgesic activity (nociceptive threshold, paw withdrawal)” value in assay [2] (50 mg/kg (FIG. 1)) was “did not show any activity”. Also, the “analgesic efficacy in the rat hot plate test” value in [3] was “analgesic efficacy”. Besides, the “efficacy in the zero plus maze animal model of anxiety” value in assay [4] is given as “efficacious”.

With `NC(=O)c1ccn(-c2cccc(OC(=O)NCCCCCCc3ccccc3)c2)c1` [Example 4, (6-phenyl-hexyl)-carbamic acid 3-(3-carbamoyl-pyrrol-1-yl)-phenyl ester], the “analgesic activity, dose response” value in assay [2] (30 mg/kg (FIGS. 2, 3 and 4)) is “did exert analgesic activity”; in assay [2] (100 mg/kg, compared with 30 mg/kg (FIGS. 2, 3 and 4)), “higher effect”. Also, in assay [2] (acute oral treatment, 30 mg/kg (FIG. 1)), the “analgesic activity (nociceptive threshold, paw withdrawal)” value is given as “significant analgesic activity”. Moreover, in [5], the “inhibitory activity on CB2R” value is “−−−− (1000 times [IC50] with an inhibitory activity on the target <60%)”. Besides, in assay [6], the “inhibitory activity on DAGL” value is “−−−− (1000 times [IC50] with an inhibitory activity on the target <60%)”. Besides, the “inhibitory activity on MAGL” value in assay [7] was “−−−− (1000 times [IC50] with an inhibitory activity on the target <60%)”. Also, the IC50 in assay [8] (37° C., 15 min, pH 9.0) is less than 10 nM. For the same compound, the Ki in assay [8] (Lineweaver-Burk analysis) is less than 10 nM. Further, in assay [9], the “inhibitory activity on TRPV1” value was “−−−− (1000 times [IC50] with an inhibitory activity on the target <60%)”. In assay [10], the “inhibitory activity on NAPE-PLD” value was “−−−− (1000 times [IC50] with an inhibitory activity on the target <60%)”. Moreover, the “inhibitory activity on CB1R” value in assay [11] is “−−−− (1000 times [IC50] with an inhibitory activity on the target <60%)”. The “AMT, % @ 1 μM” value in [12] was determined as 80% @ 1 μM.
